How the values were obtained:
Type in all cases: cell-based
EctD (P. lautus) = target: T1, EctD (P. lautus) (Paenibacillus lautus, UniProt A0A385TC02); experiment: whole-cell biotransformation in E. coli FF4169, HPLC; conditions: 10 mM ectoine in medium, MMA with 0.4 M NaCl, 37 °C, 24 h; Fe(II) and 2-oxoglutarate of the cell
T1 construct: gene thpD; full length, Strep-tag II, codon-optimized gene, plasmid pMP43, expressed in E. coli FF4169
T1 sequence (A0A385TC02 1-302): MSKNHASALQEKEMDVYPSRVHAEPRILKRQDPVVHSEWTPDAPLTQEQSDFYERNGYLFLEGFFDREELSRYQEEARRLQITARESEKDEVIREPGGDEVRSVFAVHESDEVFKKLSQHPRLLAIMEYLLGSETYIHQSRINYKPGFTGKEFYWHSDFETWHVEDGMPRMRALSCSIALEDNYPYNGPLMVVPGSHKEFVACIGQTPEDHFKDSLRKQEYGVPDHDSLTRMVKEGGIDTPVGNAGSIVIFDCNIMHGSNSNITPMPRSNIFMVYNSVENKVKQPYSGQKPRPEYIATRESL

ProU ABC transporter = target: T2, ProU ABC transporter (Escherichia coli, UniProt P0AFM2); experiment: inhibition of [[…]-14C]glycine betaine uptake, whole cells of ProP- ProU+ strain; conditions: 100 µM [1-14C]glycine betaine, MMA with 0.4 M NaCl, 37 °C, 5 min
T2 construct: gene proX; native chromosomal transporter in whole cells of a proP deletion strain; with Glycine betaine/proline betaine transport system permease protein ProW

EctD (N. maritimus) = target: T3, EctD (N. maritimus) (Nitrosopumilus maritimus, UniProt A9A2K0); experiment: whole-cell biotransformation in E. coli FF4169, HPLC; conditions: 10 mM ectoine in medium, MMA with 0.4 M NaCl, 37 °C, 24 h; Fe(II) and 2-oxoglutarate of the cell
T3 construct: gene Nmar_1343; full length, Strep-tag II, codon-optimized gene, plasmid pMP45, expressed in E. coli FF4169
T3 sequence (A9A2K0 1-304): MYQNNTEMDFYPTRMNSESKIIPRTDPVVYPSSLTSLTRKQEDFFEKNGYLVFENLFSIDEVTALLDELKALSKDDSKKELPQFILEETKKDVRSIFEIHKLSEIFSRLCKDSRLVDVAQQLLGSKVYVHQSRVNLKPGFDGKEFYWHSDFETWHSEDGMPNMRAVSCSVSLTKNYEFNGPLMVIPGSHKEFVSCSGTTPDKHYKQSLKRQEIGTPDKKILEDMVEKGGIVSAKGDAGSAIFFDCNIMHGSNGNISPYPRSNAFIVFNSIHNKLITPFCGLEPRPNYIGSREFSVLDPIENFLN

EctD (H. elongata) = target: T4, EctD (H. elongata) (Halomonas elongata, UniProt E1VA04); experiment: as above; conditions: 10 mM ectoine in medium, MMA with 0.4 M NaCl, 37 °C, 24 h; Fe(II) and 2-oxoglutarate of the cell
T4 construct: full length, Strep-tag II, plasmid pMP32, expressed in E. coli FF4169
T4 sequence (E1VA04 1-332): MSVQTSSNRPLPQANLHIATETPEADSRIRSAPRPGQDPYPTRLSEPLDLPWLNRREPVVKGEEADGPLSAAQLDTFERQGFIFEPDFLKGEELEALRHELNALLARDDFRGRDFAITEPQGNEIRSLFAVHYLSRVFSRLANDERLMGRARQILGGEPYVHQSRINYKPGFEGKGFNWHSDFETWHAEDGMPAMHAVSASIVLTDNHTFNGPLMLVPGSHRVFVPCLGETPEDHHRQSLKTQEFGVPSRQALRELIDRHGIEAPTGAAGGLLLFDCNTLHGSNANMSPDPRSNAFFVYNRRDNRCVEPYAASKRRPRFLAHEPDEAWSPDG

[1] = target: T5, EctD (P. stutzeri A1501), ectoine hydroxylase (Stutzerimonas stutzeri, UniProt A4VFY4); experiment: as above; conditions: 10 mM ectoine in medium, MMA with 0.4 M NaCl, 37 °C, 24 h; Fe(II) and 2-oxoglutarate of the cell
T5 construct: homodimer
T5 sequence (A4VFY4 1-302): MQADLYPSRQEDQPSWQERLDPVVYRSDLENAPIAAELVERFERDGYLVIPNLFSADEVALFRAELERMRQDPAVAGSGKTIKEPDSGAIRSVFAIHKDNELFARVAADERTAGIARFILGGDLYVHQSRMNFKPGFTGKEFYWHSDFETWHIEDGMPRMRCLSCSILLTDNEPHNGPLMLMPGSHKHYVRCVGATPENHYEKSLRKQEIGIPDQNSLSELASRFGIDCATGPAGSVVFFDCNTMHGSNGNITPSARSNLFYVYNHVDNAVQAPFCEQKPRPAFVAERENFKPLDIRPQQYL

EctD (A. ehrlichii) = target: T6, EctD (A. ehrlichii) (Alkalilimnicola ehrlichii, UniProt A0A3E0X329); experiment: as above; conditions: 10 mM ectoine in medium, MMA with 0.4 M NaCl, 37 °C, 24 h; Fe(II) and 2-oxoglutarate of the cell
T6 construct: gene CAL65_03675; full length, Strep-tag II, codon-optimized gene, plasmid pMP44, expressed in E. coli FF4169
T6 sequence (A0A3E0X329 1-303): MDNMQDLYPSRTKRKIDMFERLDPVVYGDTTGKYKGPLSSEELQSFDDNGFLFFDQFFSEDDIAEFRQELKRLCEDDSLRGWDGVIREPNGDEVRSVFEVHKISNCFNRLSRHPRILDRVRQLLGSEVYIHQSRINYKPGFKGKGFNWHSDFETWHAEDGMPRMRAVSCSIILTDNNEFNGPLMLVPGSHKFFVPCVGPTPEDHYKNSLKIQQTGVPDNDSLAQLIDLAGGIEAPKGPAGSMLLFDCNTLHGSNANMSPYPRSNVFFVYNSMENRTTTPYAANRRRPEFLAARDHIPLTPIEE

EctD (S. alaskensis) = target: T7, EctD (S. alaskensis) (Sphingopyxis alaskensis, UniProt Q1GNW5); experiment: as above; conditions: 10 mM ectoine in medium, MMA with 0.4 M NaCl, 37 °C, 24 h; Fe(II) and 2-oxoglutarate of the cell
T7 construct: full length, Strep-tag II, plasmid pMP40, expressed in E. coli FF4169; homodimer
T7 sequence (Q1GNW5 1-306): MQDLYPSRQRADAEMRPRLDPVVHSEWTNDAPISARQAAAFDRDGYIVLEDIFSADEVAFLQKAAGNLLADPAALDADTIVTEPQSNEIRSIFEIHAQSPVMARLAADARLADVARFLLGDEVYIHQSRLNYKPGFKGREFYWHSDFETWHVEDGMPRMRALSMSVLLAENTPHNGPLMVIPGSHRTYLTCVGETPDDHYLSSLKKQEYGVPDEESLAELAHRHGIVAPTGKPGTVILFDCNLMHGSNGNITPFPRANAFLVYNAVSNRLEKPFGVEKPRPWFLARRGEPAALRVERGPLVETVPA

ProP = target: T8, ProP (Escherichia coli, UniProt P0C0L7); experiment: inhibition of [[…]-14C]glycine betaine uptake, whole cells of ProP+ ProU- strain; conditions: 100 µM [1-14C]glycine betaine, MMA with 0.4 M NaCl, 37 °C, 5 min; unlabelled glycine betaine 1 mM; labelled compound
T8 construct: native chromosomal transporter in whole cells of a proU deletion strain
T8 sequence (P0C0L7 whole entry): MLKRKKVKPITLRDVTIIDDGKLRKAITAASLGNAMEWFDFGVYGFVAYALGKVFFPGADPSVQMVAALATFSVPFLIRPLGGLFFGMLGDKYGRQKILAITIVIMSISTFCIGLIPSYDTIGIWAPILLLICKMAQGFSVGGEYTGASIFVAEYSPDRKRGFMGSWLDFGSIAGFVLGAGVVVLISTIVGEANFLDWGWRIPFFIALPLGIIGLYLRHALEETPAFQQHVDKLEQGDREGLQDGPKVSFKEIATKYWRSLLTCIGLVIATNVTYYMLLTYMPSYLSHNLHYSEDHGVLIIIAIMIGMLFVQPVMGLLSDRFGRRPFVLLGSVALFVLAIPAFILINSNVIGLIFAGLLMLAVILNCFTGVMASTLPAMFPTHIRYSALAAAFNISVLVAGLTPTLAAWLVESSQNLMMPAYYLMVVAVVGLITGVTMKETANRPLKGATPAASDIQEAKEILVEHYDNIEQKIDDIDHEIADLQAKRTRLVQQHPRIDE

T2 sequence (P14176 whole entry): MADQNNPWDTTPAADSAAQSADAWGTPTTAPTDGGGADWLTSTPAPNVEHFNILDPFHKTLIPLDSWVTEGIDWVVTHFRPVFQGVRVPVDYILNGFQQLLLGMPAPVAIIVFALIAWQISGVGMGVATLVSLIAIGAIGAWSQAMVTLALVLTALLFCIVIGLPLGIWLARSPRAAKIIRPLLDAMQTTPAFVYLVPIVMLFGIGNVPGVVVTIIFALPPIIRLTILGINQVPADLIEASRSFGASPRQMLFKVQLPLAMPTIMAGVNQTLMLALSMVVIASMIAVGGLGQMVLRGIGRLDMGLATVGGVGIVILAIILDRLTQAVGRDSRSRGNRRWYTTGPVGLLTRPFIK
T2 sequence (P0AFM2 22-330): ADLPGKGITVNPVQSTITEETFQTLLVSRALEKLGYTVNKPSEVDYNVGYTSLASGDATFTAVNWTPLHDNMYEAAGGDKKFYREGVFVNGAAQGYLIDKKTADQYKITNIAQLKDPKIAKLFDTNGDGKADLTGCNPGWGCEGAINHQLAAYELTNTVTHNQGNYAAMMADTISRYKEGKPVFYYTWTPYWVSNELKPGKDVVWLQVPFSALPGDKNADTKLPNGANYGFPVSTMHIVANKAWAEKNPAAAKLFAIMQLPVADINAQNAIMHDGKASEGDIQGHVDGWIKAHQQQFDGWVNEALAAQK
T2 sequence (P14175 whole entry, further chain): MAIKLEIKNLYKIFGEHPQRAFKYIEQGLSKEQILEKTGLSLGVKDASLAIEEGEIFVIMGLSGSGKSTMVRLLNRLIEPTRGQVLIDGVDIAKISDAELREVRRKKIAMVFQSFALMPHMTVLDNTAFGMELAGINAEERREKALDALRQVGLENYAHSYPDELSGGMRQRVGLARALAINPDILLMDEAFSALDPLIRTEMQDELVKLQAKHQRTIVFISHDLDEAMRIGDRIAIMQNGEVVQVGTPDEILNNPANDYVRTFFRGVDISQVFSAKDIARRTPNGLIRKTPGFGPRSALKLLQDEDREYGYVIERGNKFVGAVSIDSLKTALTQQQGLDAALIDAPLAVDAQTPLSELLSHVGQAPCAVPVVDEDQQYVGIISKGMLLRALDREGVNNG

Structure (SMILES)	whole-cell biotransformation in E. coli FF4169, HPLC (EctD (P. lautus))	% inhibition at 1000-fold excess (ProU ABC transporter; competitor 1000-fold excess (100 mM)) [%]	whole-cell biotransformation in E. coli FF4169, HPLC (EctD (N. maritimus))	whole-cell biotransformation in E. coli FF4169, HPLC (EctD (H. elongata))	whole-cell biotransformation in E. coli FF4169, HPLC [1]	whole-cell biotransformation in E. coli FF4169, HPLC (EctD (A. ehrlichii))	whole-cell biotransformation in E. coli FF4169, HPLC (EctD (S. alaskensis))	% inhibition at tenfold excess (ProU ABC transporter; unlabelled glycine betaine 1 mM, labelled compound)	% inhibition at tenfold excess (ProP)
CC1=NCC[C@@H](C(=O)O)N1 [ectoine, (S)-2-methyl-1,4,5,6-tetrahydropyrimidine-4-carboxylic acid]	a mixture of the added ectoine and the newly produced 5-hydroxyectoine were observed	45	almost all of the provided ectoine had been converted into 5-hydroxyectoine	a mixture of the added ectoine and the newly produced 5-hydroxyectoine were observed	almost all of the provided ectoine had been converted into 5-hydroxyectoine	a mixture of the added ectoine and the newly produced 5-hydroxyectoine were observed	a mixture of the added ectoine and the newly produced 5-hydroxyectoine were observed	–	–
C[N+](C)(C)CC(=O)[O-] [glycine betaine]	–	–	–	–	–	–	–	~ 85%	~ 85%

From publication PMC4955205, “EctD-mediated biotransformation of the chemical chaperone ectoine into hydroxyectoine and its mechanosensitive channel-independent excretion” (Microbial Cell Factories, 2016)
